Literature values in patent US20260229307A1, “CLEAVED NEOEPITOPES” (IOGENETICS, LLC, priority 2023, published 2026).

How the values were obtained:
[1] = human muscular dystrophy trial
[2] = relative to E64

Structure (SMILES): CCOC(=O)[C@H]1O[C@@H]1C(=O)N[C@@H](CC(C)C)C(=O)NCCC(C)C [aloxistatin]
- safety in humans [1]: demonstrate the safety
- cell permeability and adsorption [2]: improved cell permeability and adsorption
